From publication PMC5215716, “A Target-Based Whole Cell Screen Approach To Identify Potential Inhibitors of Mycobacterium tuberculosis Signal Peptidase” (ACS Infectious Diseases, 2016)
Values after ≈ are worked out from the molar mass of the structure shown.

What was measured:
[1] = test system: M. tuberculosis strain SPAM13C (LepB-UE); experiment: microbe, parasite or virus in culture; format: cell-based, Mycobacterium tuberculosis; conditions: for MIC: Mycobacterium tuberculosis, 120 h, read-out: LepB-UE MIC; for MIC / LepB-UE MIC: M. tuberculosis strain SPAM13C, OD590 after 5 days at 37 °C, average ± SD of at least two experiments, b = single value; for Change in potency against LepB-UE compared to compound 1: decrease in potency relative to compound 1
[2] = test system: wild-type (wt) M. tuberculosis strain; experiment: microbe, parasite or virus in culture; format: cell-based, Mycobacterium tuberculosis; conditions: […], OD590 after 5 days at 37 °C, average ± SD of at least two experiments, b = single value; for MIC: Mycobacterium tuberculosis, 120 h, read-out: WT MIC
in vitro = format: cell-based, African green monkey; conditions: African green monkey
Method: (§1) Cytotoxicity against African green monkey adult kidney cell (Vero cells) was determined as previously described using CellTiter-Glo reagent.[44] The concentration causing 50% growth inhibition (IC50) was calculated by fitting the inhibition curves using the Levenberg–Marquardt algorithm.

Vero cells = experiment: in vitro; format: cell-based, African green monkey; conditions: relative to compound 16
Method: as §1

LepB = molecular target: T1, LepB (Mycobacterium tuberculosis, UniProt P9WKA1); experiment: LepB membrane assay (fluorogenic signal peptide cleavage by cell membrane fraction); format: biochemical; conditions: M. tuberculosis H37Rv cell membrane fraction, 2 μM peptide substrate, 4 h at 37 °C
T1 construct: we used purified membrane fractions to develop an in vitro assay for signal peptide cleavage; host or cells: γ-irradiated whole M. tuberculosis H37Rv; Triton X-114 membrane fraction
T1 sequence (P9WKA1 1-294): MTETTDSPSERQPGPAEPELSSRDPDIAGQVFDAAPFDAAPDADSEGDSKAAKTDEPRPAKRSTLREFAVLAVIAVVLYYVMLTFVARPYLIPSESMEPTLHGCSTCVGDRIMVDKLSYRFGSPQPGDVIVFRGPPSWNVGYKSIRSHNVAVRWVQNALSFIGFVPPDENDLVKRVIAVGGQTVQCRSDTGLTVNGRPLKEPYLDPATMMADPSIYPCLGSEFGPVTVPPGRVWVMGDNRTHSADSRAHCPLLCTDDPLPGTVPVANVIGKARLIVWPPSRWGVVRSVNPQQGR

| SMILES | MIC [1] | MIC [2] | CC50 (in vitro) | Decrease in selectivity compared to 16 (Vero cells) | IC50 (LepB) | LepB-UE MIC [1] | WT MIC [2] | Change in potency against LepB-UE compared to compound 1 [1] |
| --- | --- | --- | --- | --- | --- | --- | --- | --- |
| COc1ccc([N+](=O)[O-])cc1/C=N/NC(=N)c1ccccn1 [Compound 33] | > 200 µM | > 200 µM | > 100 µM | 15 fold | – | – | – | – |
| N=C(N/N=C/c1cccc([N+](=O)[O-])c1)c1ccccn1 [Compound 34] | 106 µM (≈ 28.5 µg/mL) | > 200 µM | > 100 µM | 15 fold | – | – | – | – |
| COc1ccc(CC(=O)N/N=C(\C)c2ccccn2)cc1OC [Compound 36] | 26 ± 1 µM (≈ 8.15 µg/mL) | 53 ± 2 µM (≈ 16.6 µg/mL) | 12 µM | – | > 200 µM | – | – | – |
| C/C(=N\NC(=O)C1CCCN(S(=O)(=O)c2ccccc2)C1)c1ccccn1 (stereo not shown) [Compound 38] | 3.5 to 15 µM (≈ 1.35 to 5.8 µg/mL) | 17 ± 5 µM (≈ 6.57 µg/mL) | 9.5 µM | – | 180 µM | 4.9 ± 0.2 µM | – | – |
| C/C(=N\NC(=O)c1ccoc1C)c1ccccn1 [Compound 39] | 2 to 2.5 µM (≈ 0.487 to 0.608 µg/mL) | < 10 µM | 3.3 µM | – | > 200 µM | 2.5 ± 0.2 µM | 5.5 ± 1.4 µM | – |
| C/C(=N\NC(=O)C1CC1)c1ccccn1 [Compound 40] | – | 42 ± 15 µM (≈ 8.54 µg/mL) | 75 µM | – | > 200 µM | 15 ± 1 µM | – | – |
| C/C(=N\NS(=O)(=O)c1ccccc1)c1ccccn1 [Compound 42] | 48 µM (≈ 13.2 µg/mL) | 94 µM (≈ 25.9 µg/mL) | > 100 µM | – | 34 µM | – | – | 16 fold |
| Cc1cc(C)nc(-n2nc(C)cc2C)n1 [Compound 43] | 48 ± 2 µM (≈ 9.71 µg/mL) | 115 ± 23 µM (≈ 23.3 µg/mL) | > 100 µM | – | > 200 µM | – | – | – |
| Cc1cc(C)nc(-n2nc(C)c(Oc3ccccc3O)c2C)n1 [Compound 44] | 95 ± 7 µM (≈ 29.5 µg/mL) | > 200 µM | > 100 µM | – | > 200 µM | – | – | – |
| CC1=NN(c2nc(C)cc(C)n2)C(=O)C1C (stereo not shown) [Compound 46] | 90 ± 28 µM (≈ 19.6 µg/mL) | > 200 µM | > 100 µM | – | > 200 µM | – | – | – |
| Cc1cc(C)nc(-n2nc(C)c(Cc3ccccc3C)c2O)n1 [Compound 47] | 61 ± 7 µM (≈ 18.8 µg/mL) | > 200 µM | > 100 µM | – | > 200 µM | – | – | – |
| Cc1cc(C)nc(NNC(=O)c2ccccn2)n1 [Compound 57] | 3.5 to 15 µM (≈ 0.851 to 3.65 µg/mL) | 25 µM (≈ 6.08 µg/mL) | 32 µM | – | 64 µM | 3.9 ± 1.3 µM | 25 ± 4 µM | activity similar to that of 1 |
